According to patent publication EP3720857B1, “2-OXO-5H-CHROMENO[4,3-B]PYRIDINES FOR USE IN THE TREATMENT OF HEPATITIS B” (Galapagos NV, priority 2017, dated 2019):

Legend:
[1] = tested on: hepatitis virus B (HBV) infection; assay: iCell hepatocytes assay, delayed assay (compounds added three days after HBV infection); type: cell-based; details: for EC50: Hepatitis B virus, Hepatocyte, HBs ELISA
Protocol: The principle of the iCell hepatocyte 2.0 96 well assay is to evaluate the inhibitory effect of a test compound on hepatitis virus B (HBV) infection. In this assays the HBV core antigen (HBcAg) and/or extracellular antigen (HBeAg) and/or surface antigen (HBsAg) are used as a marker for HBV infection. Nuclei count may be used as an indication for compound toxicity.
In the standard assay set-up HBV infection and compound addition are performed on the same day, in the delayed assay the compounds are added three days after HBV infection. iCell hepatocytes 2.0 are human hepatocytes derived from induced pluripotent stem cells (iPSc) purchased from Cellular Dynamics international (CDI, R1027).
At day 0, iCell hepatocytes 2.0 (CDI, R1027) are thawed and seeded in collagen I coated 96well plates at 112 000c/well (100µL) in plating medium (RPMI supplemented with B27 supplement, 20 ng/mL recombinant human oncostatin M (OSM), 25µg/mL gentamicin, 0.1µM Dexamethasone and iCell medium supplement provided by CDI). Plates are incubated at 37°C, 5% CO2 and daily refreshed with plating medium for the following four days.
On day 5 and 6, plates are refreshed with 100µL maintenance medium (RPMI supplemented with B27 supplement, 25µg/mL gentamicin, 0.1µM Dexamethasone, and iCell medium supplement provided by CDI) and incubated at 37°C, 5% CO2 until the following day.
On day 7 (day of infection), the maintenance medium is removed from the assay plates and cells are infected with 50 µL of HBV mix (HBV virus, 4% PEG, 0% or 2% DMSO in maintenance medium). The assay plates were incubated overnight at 37°C, 5% CO2.
At day 1 post infection (day8), 50µL of HBV mix is removed from the assay plates and refreshed with 100 µL of maintenance medium. The assay plates are incubated at 37°C, 5% CO2 for three days.
At day 4 post infection (day 11) and day 7 post infection (day14), the supernatant is removed and 100 µL of compound series diluted 1/500 in maintenance medium is added to the assay plates (8 point serial dilution using 1/3 dilution steps in 100% DMSO or 8 point serial dilution using ¼ dilution steps, normalized for 0.2% DMSO. The assay plates were incubated at 37°C, 5% CO2 for three days.
At day 10 post infection (day 17), 100µL of supernatant is harvested and frozen to -20°C. The cells are fixed with 50 µL of 3.7% formaldehyde and incubated for 30 min at room temperature. After fixation, cells are washed four times with phosphate buffer saline (PBS) with the plate washer (Select 405, microplate washer, Biotek) and subjected to HBc staining. harvested supernatant is used for HBe and/or HBs ELISA.
The assay plates are blocked with blocking buffer (2% FBS, 3% BSA, 0.2% TritonX100 in PBS) for 1 h at room temperature.
After blocking, the assay plates are tapped manually and incubated with 50 µL diluted primary antibody (1/700 Rabbit-anti-HBc Ag, Dako, B0586 or 1/350 Rabbit-anti-HBc Ag, Invitrogen, PA516368) in blocking buffer and incubated for 90 min at room temperature.
After 4 washes of PBST (1XPBS + 0.05% Tween) with the plate washer, the assay plates are incubated with 100 µL of secondary antibody (Donkey-anti-rabbit Alexa 488, Lifetechnologies, A21206) 1/500 diluted in blocking buffer and incubated for 60 min at room temperature in the dark, then washed 4 times with PBST on the plate washer and incubated with 100µL of DAPI (Sigma D9542, stock 5mg/mL) 1/10000 diluted in PBS for 15-30 min at room temperature in the dark.
Finally, the assay plates are read out on a InCell Analyzer 2200 (GE Healthcare). […]
After blocking, 30 µL of sample and HBe Ag standard (recombinant hepatitis B virus E antigen protein, 4mg/mL, Abcam, ab91273) are added to the plate. The HBe Ag standard is 1/3 diluted in blocking buffer starting from 1.25µg/mL. A vehicle control is also included. The plate is incubated for 30 min at room temperature.
After sample incubation, the plates are washed 4 times with PBST on a platewasher followed by 2 washed of PBS. […]

[2] = tested on: hepatitis virus B (HBV) infection; assay: HepG2 NTCP assay (HBcAg staining as marker of HBV infection); type: cell-based; details: HepG2-NTCP cells infected with HBV, HBV core antigen (HBcAg) as marker of infection
Method in brief: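 HepG2-NTCP cells were infected with HBV (4% PEG, 1% DMSO) in the presence of compound overnight, then re-dosed and incubated 5 days at 37 °C. HBcAg immunofluorescence was imaged, with DAPI nuclei count taken as toxicity. Ten-point 1/3 dilutions gave % inhibition against 0.2% DMSO vehicle and 100 nM Myrcludex B, with dose-response curves fitted.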

Row | Structure (SMILES) | Delayed assay HBs ELISA % inhibition [1] | EC50 [1] | IC50 [2]
1 | COc1cc2c(cc1OC)-c1c(cc(C(=O)O)c(=O)n1C1CC1)C(C(C)C)O2 (stereo not drawn) [Compound 3, 1-cyclopropyl-5-isopropyl-8,9-dimethoxy-2-oxo-5H-chromeno[4,3-b]pyridine-3-carboxylic acid] | +++ (75-100%) | > 50 nM | 1 to 20 nM
2 | COCCCOc1cc2c(cc1Cl)-c1c(cc(C(=O)O)c(=O)n1C1CC1)C(C(C)C)O2 (stereo not drawn) [Compound 4, 9-chloro-1-cyclopropyl-5-isopropyl-8-(3-methoxypropoxy) -2-oxo-5H-chromeno[4,3-b]pyridine-3-carboxylic acid] | ++ (50-75%) | 0.001 to 20 nM | 0.001 to 1 nM
3 | COCCCOc1cc2c(cc1Cl)-c1c(cc(C(=O)O)c(=O)n1C1CCC1)C(C(C)C)O2 (stereo not drawn) [Compound 17, 9-chloro-1-cyclobutyl-5-isopropyl-8-(3-methoxypropoxy) -2-oxo-5H-chromeno[4,3-b]pyridine-3-carboxylic acid] | +++ (75-100%) | 0.001 to 20 nM | 0.001 to 1 nM
4 | COCCCOc1cc2c(cc1Cl)-c1c(cc(C(=O)O)c(=O)n1C1CC1)[C@@H](C1(C)COC1)O2 [Compound 47, (5S)-9-chloro-1-cyclopropyl-8-(3-methoxypropoxy)-5-(3-methyloxetan-3-yl)-2-oxo-5H-chromeno[4,3-b]pyridine-3-carboxylic acid] | ++ (50-75%) | 22 to 50 nM | 1 to 20 nM
